From publication PMC11003481, “Synthesis, biological evaluation, and computational studies of N-benzyl pyridinium–curcumin derivatives as potent AChE inhibitors with antioxidant activity” (Journal of Enzyme Inhibition and Medicinal Chemistry, 2023) come the findings set out here.

Molecules are shown by their SMILES. Values joined by “and” are separate entries in the source; they are usually repeats but may differ in a detail not shown here. Identical values can stand only once.

In test [1] the target is acetylcholinesterase (eeAChE, from Electrophorus electricus) (Electrophorus electricus, UniProt O42275). Description: biochemical. The conditions noted are these: for Selectivity Index (SI) (AChE): Selectivity ratio [IC50(BChE)/IC50(AChE)]; for IC50: eeAChE, mean ± SEM of three independent experiments, duplicate samples, read-out: IC50 ± SEM AChE. The procedure:
(§1) The AChE and BChE inhibitory activity assays were performed using a BioTek Epoch 2 microplate spectrophotometer in clear, flat-bottom 96-well plates. […] To each well, 295 µL phosphate buffer pH 8.0, 10 µL enzyme solution (AChE/BChE), and 10 µL target compound solutions were added together and allowed to stand for 4 min at room temperature. Then, 10 µL of 0.01 M solution freshly prepared Ellman’s reagent 5,5′-dithiobis(2-nitrobenzoic acid) (DTNB) was added to each well. The reaction in the wells was started by the addition of 2 µL of 0.075 M solution freshly prepared substrate (ATCh (acetylthiocholine iodide)/BTCh (S-butyrylthiocholine iodide)) solution. The solution was mixed immediately and incubated for 2:30 min for AChE or for 5 min for BChE inside the microplate reader at 26 °C. […] The IC50 values were calculated graphically by nonlinear regression analysis of inhibition curves that were obtained by plotting the logarithm of the inhibitor concentrations versus the percentage of inhibition (log(inhibitor) vs. normalised response) using GraphPad Prism 8 software (See Supplementary Information for details).

The target of test [2] is T1, butyrylcholinesterase (eqBChE, from equine serum) (Equus caballus, UniProt P81908).
T1 construct: butyrylcholinesterase (eqBChE, from equine serum); from tissue; host or cells: equine serum
T1 sequence (P81908 whole entry): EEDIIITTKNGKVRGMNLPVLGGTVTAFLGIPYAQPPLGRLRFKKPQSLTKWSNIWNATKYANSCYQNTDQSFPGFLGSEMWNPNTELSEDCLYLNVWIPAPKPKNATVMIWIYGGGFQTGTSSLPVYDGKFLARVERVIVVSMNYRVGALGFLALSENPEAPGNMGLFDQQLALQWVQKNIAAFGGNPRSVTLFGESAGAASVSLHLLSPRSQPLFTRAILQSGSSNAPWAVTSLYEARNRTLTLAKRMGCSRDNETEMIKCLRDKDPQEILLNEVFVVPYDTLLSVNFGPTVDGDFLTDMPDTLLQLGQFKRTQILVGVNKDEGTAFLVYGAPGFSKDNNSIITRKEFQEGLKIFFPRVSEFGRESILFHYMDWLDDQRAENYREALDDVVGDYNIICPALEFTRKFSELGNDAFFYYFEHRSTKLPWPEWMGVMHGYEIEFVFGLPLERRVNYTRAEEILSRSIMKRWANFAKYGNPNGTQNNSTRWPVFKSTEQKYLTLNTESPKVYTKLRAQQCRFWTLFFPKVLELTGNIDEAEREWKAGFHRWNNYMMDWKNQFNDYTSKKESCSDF
Description: biochemical. The conditions noted are these: mean ± SEM of three independent experiments, duplicate samples, read-out: IC50 ± SEM BChE. As for the experimental part:
as §1

Test [3] is described as follows: ABTS radical cation decolorisation antioxidant assay. The procedure:
The antioxidant activity was determined using a radical cation (ABTS^.+) decolorisation assay, as described by Xiao et al.[21] with a few modifications. The assay used a BioTek Epoch 2 microplate spectrophotometer (Agilent, USA) with clear, flat-bottom 96-well plates. The 7 mmol/L ABTS^.+ stock solution was prepared by dissolving 96.02 mg ABTS in acetic acid buffer (pH 4.5) and to a final volume of 25 ml, which was kept in the dark at 0–4 °C. A 2.45 mmol/L potassium persulfate (K2S2O8) stock solution was prepared by dissolving 66.24 mg K2S2O8 in acetic acid buffer solution with pH 4.5, and then diluted to 100 ml and kept in the dark at 0–4 °C. The ABTS working solution was prepared by mixing similar quantities of 7 mmol/L ABTS and 2.45 mmol/L K2S2O8. This solution was stored in a dark cabinet for 16 h before use, when it was diluted with distilled water to obtain an absorbance of 0.70 at 734 nm. In a clear, flat-bottom 96-well plate, 200 μL of ABTS working solution and 10.0 μL sample solution at different concentrations (0.0312–0.5 mg/mL) were mixed well and incubated in the dark for 7 min before the absorbance was measured at 734 nm using a microplate reader. A blank was run for each assay, and all measurements were performed after 7 min. The ABTS scavenging capacity of inhibitors was compared with that of trolox and α-tocopherol. […]

In a further test the target is eeAChE (Electrophorus electricus, UniProt O42275). The test is described as follows: biochemical. It is filed as biochemical. To be noted: from slopes of Lineweaver-Burk plots versus inhibitor concentration; substrate ATCh; read-out: Ki ± SEM eeAChE. As for the experimental part: The slopes of the Lineweaver-Burk reciprocal plots against the concentrations of the compound (inhibitor) were plotted to obtain the Ki values for the prepared compounds (Table 1). The value at which the line intersects the x-axis is -Ki.
eeAChE, sequence (O42275 24-633): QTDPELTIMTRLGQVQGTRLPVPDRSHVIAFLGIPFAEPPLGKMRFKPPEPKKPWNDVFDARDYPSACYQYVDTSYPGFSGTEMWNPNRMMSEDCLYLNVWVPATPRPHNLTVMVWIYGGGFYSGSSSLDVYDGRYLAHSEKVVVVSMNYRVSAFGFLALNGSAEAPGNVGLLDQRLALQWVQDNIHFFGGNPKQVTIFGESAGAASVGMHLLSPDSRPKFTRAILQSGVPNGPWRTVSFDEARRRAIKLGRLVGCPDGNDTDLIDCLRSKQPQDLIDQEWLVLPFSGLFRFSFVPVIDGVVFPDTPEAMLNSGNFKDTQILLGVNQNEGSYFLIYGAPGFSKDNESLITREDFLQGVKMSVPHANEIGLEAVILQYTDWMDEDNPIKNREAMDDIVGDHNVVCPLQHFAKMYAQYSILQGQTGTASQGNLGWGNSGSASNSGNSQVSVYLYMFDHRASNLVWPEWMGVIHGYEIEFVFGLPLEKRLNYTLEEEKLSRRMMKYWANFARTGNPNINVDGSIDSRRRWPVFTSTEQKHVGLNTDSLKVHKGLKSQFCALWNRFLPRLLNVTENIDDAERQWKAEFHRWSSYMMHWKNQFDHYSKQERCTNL
The assay was performed in triplicate using different inhibitor concentrations. […] The assay was carried out in clear, flat-bottom 96-well plates, to which 5 µL distilled water was added to all wells of columns 2–3, rows B-F. Then, 5 µL of the lowest concentration of inhibitor solution was added to the wells of columns 4–5, 5 µL of the median concentration of inhibitor solution was added to the wells of columns 6–7, and 5 µL of the highest concentration of inhibitor solution was added to the wells of columns 8–9. Next, 275 μL enzyme solution was added to the wells, and the plates were incubated for 4 min. Then, 10 μL 2.5 mM DTNB was added to the wells, followed by 10 μL of 32, 16, 8, 4, or 2 mM ATCh solutions to initiate the reactions. The plates were placed in a microplate reader for direct kinetic measurements.
The inhibition constant (Ki) for each inhibitor was calculated by averaging the ATCh hydrolysis rates from three independent experiments. Using GraphPad Prism 8 software, nonlinear regression was used to calculate the Km and Vmax values of the Michaelis-Menten kinetics by plotting [substrate] versus velocity. For the Lineweaver-Burk plots, linear regression was used to plot [1/ATCh] versus […]. Finally, the Ki values were obtained by plotting the slopes against [inhibitor] [20].

acetylcholinesterase (eeAChE, from Electrophorus electricus), sequence (O42275 24-633): as above

Usually IC50 stands for the point on the concentration scale where inhibition reaches its midpoint. For the compound `O=C(/C=C/c1ccccc1)/C=C/c1ccc[n+](Cc2ccc(Br)cc2)c1` [Compound 8c, 1–(4-Bromobenzyl)-3-(1E,4E)-3-oxo-5-phenylpenta-1,4-dien-1-yl)pyridin-1-ium bromide], in test [1], the “Selectivity Index (SI) (AChE)” value is reported as 1 and the IC50 came out at 1160 ± 0.17 nM.
`COc1cc(/C=C/C(=O)/C=C/c2cc[n+](Cc3ccc(Br)cc3)cc2)ccc1O` [Compound 7h, 1–(4-Bromobenzyl)-4-(1E,4E)-5–(4-hydroxy-3-methoxyphenyl)-3-oxopenta-1,4-dien-1-yl)pyridin-1-ium bromide]: in test [2], the IC50 was 6360 ± 106 nM. Besides, in test [1], the “Selectivity Index (SI) (AChE)” value was 10 and the half-maximal inhibitory concentration (IC50) turned out to be 710 ± 0.16 nM.
For the compound `COc1cc(/C=C/C(=O)/C=C/c2ccc[n+](Cc3ccc([N+](=O)[O-])cc3)c2)ccc1O` [Compound 8j, 3-(1E,4E)-5–(4-Hydroxy-3-methoxyphenyl)-3-oxopenta-1,4-dien-1-yl)-1–(4-nitrobenzyl)pyridin-1-ium bromide], the values for the 50% inhibitory concentration (IC50) in test [2] and in test [1] were 9800 ± 90 nM and 660 ± 0.21 nM, respectively.
The term Ki denotes the equilibrium dissociation constant of an inhibitor or competing ligand from its target. Take `O=C(/C=C/c1ccccc1)/C=C/c1ccc[n+](Cc2ccccc2)c1` [Compound 8a, 1-Benzyl-3-(1E,4E)-3-oxo-5-phenylpenta-1,4-dien-1-yl)pyridin-1-ium bromide]: the “Selectivity Index (SI) (AChE)” value in test [1] was 14. Moreover, the concentration for half-maximal inhibition (IC50) in test [1] was ≤ 56 nM and 56 nM. Besides, the “ABTS Inhibition %” value turned out to be 0.0 ± 0.70% in test [3] (0.0312 mg/mL); 0.3 ± 0.28% in test [3] (0.0625 mg/mL); 0.4 ± 0.36% in test [3] (0.125 mg/mL); 1.4 ± 0.49% in test [3] (0.25 mg/mL); 2.6 ± 0.38% in test [3] (0.5 mg/mL). In addition, the Ki on eeAChE is 102 ± 0.008 nM.
Turning to `Cc1ccc(C[n+]2cccc(/C=C/C(=O)/C=C/c3ccccc3)c2)cc1` [Compound 8d, 1–(4-Methylbenzyl)-3-(1E,4E)-3-oxo-5-phenylpenta-1,4-dien-1-yl)pyridin-1-ium bromide], the IC50 in test [2] stood at 2500 ± 79 nM; in test [1], 630 ± 0.2 nM. Moreover, the “Selectivity Index (SI) (AChE)” value in test [1] is on record as 4.
`COc1cc(/C=C/C(=O)/C=C/c2ccc[n+](Cc3ccc(C)cc3)c2)ccc1O` [Compound 8i, 3-(1E,4E)-5–(4-Hydroxy-3-methoxyphenyl)-3-oxopenta-1,4-dien-1-yl)-1–(4-methylbenzyl)pyridin-1-ium bromide]: the IC50 in test [2] turned out to be 2500 ± 100 nM; in test [1], 270 ± 21 nM. The “Selectivity Index (SI) (AChE)” value in test [1] is on record as 11.
`Cc1c(C)c2c(c(C)c1O)CC[C@@](C)(CCC[C@H](C)CCC[C@H](C)CCCC(C)C)O2` [α-tocopherol, reference compound]: the “ABTS Inhibition %” value in test [3] (0.0312 mg/mL) stood at 6.9 ± 2.3%; in test [3] (0.0625 mg/mL) it was 15.9 ± 1.0%; in test [3] (0.125 mg/mL) it was 29.7 ± 1.3%; in test [3] (0.25 mg/mL) it was 56.4 ± 0.72%; in test [3] (0.5 mg/mL), 90.2 ± 0.04%.
Take `COc1cc(/C=C/C(=O)/C=C/c2cc[n+](Cc3ccccc3)cc2)ccc1O` [Compound 7f, 1-Benzyl-4-(1E,4E)-5–(4-hydroxy-3-methoxyphenyl)-3-oxopenta-1,4-dien-1-yl)pyridin-1-ium bromide]: the “Selectivity Index (SI) (AChE)” value in test [1] turned out to be 55. In addition, the half-inhibitory concentration (IC50) in test [1] amounted to 7.5 nM. The “ABTS Inhibition %” value was determined as 5.9 ± 0.47% in test [3] (0.0312 mg/mL); 13.7 ± 0.50% in test [3] (0.0625 mg/mL); 23.7 ± 0.51% in test [3] (0.125 mg/mL); 35.5 ± 0.93% in test [3] (0.25 mg/mL); 55.3 ± 1.42% in test [3] (0.5 mg/mL). Also, on eeAChE, the Ki worked out at 6 ± 0.036 nM.
As to `O=C(/C=C/c1ccccc1)/C=C/c1cc[n+](Cc2ccc(Br)cc2)cc1` [Compound 7c, 1–(4-Bromobenzyl)-4-(1E,4E)-3-oxo-5-phenylpenta-1,4-dien-1-yl)pyridin-1-ium bromide], in test [1], the “Selectivity Index (SI) (AChE)” value is 3 and the IC50 is 280 ± 0.2 nM.
On to `COc1cc(/C=C/C(=O)/C=C/c2cc[n+](Cc3ccc(C)cc3)cc2)ccc1O` [Compound 7i, 4-(1E,4E)-5–(4-Hydroxy-3-methoxyphenyl)-3-oxopenta-1,4-dien-1-yl)-1–(4-methylbenzyl)pyridin-1-ium bromide], for which, in test [1], the “Selectivity Index (SI) (AChE)” value is reported as 3 and the half-maximal inhibitory concentration (IC50) came out at 220 ± 0.17 nM.
With `COc1cc(/C=C/C(=O)/C=C/c2ccc[n+](Cc3ccc(Br)cc3)c2)ccc1O` [Compound 8h, 1–(4-Bromobenzyl)-3-(1E,4E)-5–(4-hydroxy-3-methoxyphenyl)-3-oxopenta-1,4-dien-1-yl)pyridin-1-ium bromide], in test [2], the half-inhibitory concentration (IC50) was determined as 1800 ± 121 nM. Moreover, in test [1], the “Selectivity Index (SI) (AChE)” value was found to be 3 and the half-maximal inhibitory concentration (IC50) is 630 ± 0.22 nM.
As to `COc1cc(/C=C/C(=O)/C=C/c2cc[n+](Cc3ccc([N+](=O)[O-])cc3)cc2)ccc1O` [Compound 7j, 4-(1E,4E)-5–(4-Hydroxy-3-methoxyphenyl)-3-oxopenta-1,4-dien-1-yl)-1–(4-nitrobenzyl)pyridin-1-ium bromide], the IC50 was determined as 1400 ± 83 nM in test [2] and 230 ± 0.19 nM in test [1].
Turning to `O=C(/C=C/c1ccccc1)/C=C/c1ccc[n+](Cc2ccc(F)cc2)c1` [Compound 8b, 1–(4-Fluorobenzyl)-3-(1E,4E)-3-oxo-5-phenylpenta-1,4-dien-1-yl)pyridin-1-ium bromide], in test [1], the “Selectivity Index (SI) (AChE)” value was determined as 7. Moreover, the half-maximal inhibitory concentration (IC50) in test [1] is ≤ 56 nM and 54 nM. For the same compound, the “ABTS Inhibition %” value in test [3] (0.0312 mg/mL) was 0.2 ± 0.40%; in test [3] (0.0625 mg/mL) it was 0.3 ± 0.22%; in test [3] (0.125 mg/mL), 1.0 ± 0.52%; in test [3] (0.25 mg/mL) it was 2.3 ± 0.64%; in test [3] (0.5 mg/mL), 5.1 ± 0.62%. Moreover, the Ki on eeAChE was 90 ± 0.012 nM.
On to `O=C(/C=C/c1ccccc1)/C=C/c1cc[n+](Cc2ccc([N+](=O)[O-])cc2)cc1` [Compound 7e, 1–(4-Nitrobenzyl)-4-(1E,4E)-3-oxo-5-phenylpenta-1,4-dien-1-yl)pyridin-1-ium bromide], for which the IC50 in test [2] amounted to 3900 ± 52 nM. For the same compound, in test [1], the “Selectivity Index (SI) (AChE)” value was determined as 5 and the IC50 turned out to be 800 ± 0.12 nM.
In the case of `Cc1ccc(C[n+]2ccc(/C=C/C(=O)/C=C/c3ccccc3)cc2)cc1` [Compound 7d, 1–(4-Methylbenzyl)-4-(1E,4E)-3-oxo-5-phenylpenta-1,4-dien-1-yl)pyridin-1-ium bromide], the figures for the half-inhibitory concentration (IC50) in test [2] and in test [1] were 4500 ± 73 nM and 1120 ± 0.14 nM, respectively. In test [1], the “Selectivity Index (SI) (AChE)” value was found to be 4.
Consider `O=C(/C=C/c1ccccc1)/C=C/c1ccc[n+](Cc2ccc([N+](=O)[O-])cc2)c1` [Compound 8e, 1–(4-Nitrobenzyl)-3-(1E,4E)-3-oxo-5-phenylpenta-1,4-dien-1-yl)pyridin-1-ium bromide], for which the half-inhibitory concentration (IC50) in test [2] is 2700 ± 63 nM. The “Selectivity Index (SI) (AChE)” value in test [1] is recorded as 2.
`Cc1c(C)c2c(c(C)c1O)CCC(C)(C(=O)O)O2` (stereo not shown) [Trolox, reference compound]: the “ABTS Inhibition %” value came out at 9.3 ± 1.2% in test [3] (0.0312 mg/mL); 24.7 ± 1.2% in test [3] (0.0625 mg/mL); 51.0 ± 2.3% in test [3] (0.125 mg/mL); 91.5 ± 1.8% in test [3] (0.25 mg/mL); 93.9 ± 0.1% in test [3] (0.5 mg/mL).
